What is called IC50 is the concentration at which inhibition is half-maximal. By Cmax is commonly meant the peak of the concentration-time curve.

Like-named read-outs stand apart in the source and are kept apart here. Where only a bound is given, the exact number is not on record here.

In one data set the test system is MIA Paca-2 cells. The data set is described as follows: Anti-proliferative effect by Cell Titer-Glo, MIA Paca-2. It is filed as cell-based. Conditions: Homo sapiens, read-out: IC50 measured value MIA Paca-2. As for the experimental part:
(§1) Compound solutions of different concentration gradients were prepared. DMSO was dissolved to a concentration of 10 mM test compound and 10 mM reference compound AZD1775, and the compounds were serially diluted in culture medium for a total of 9 dose points, with 2 parallel replicates set at each concentration. The cell growth group without compound was used as a positive control (maximum signal control) and the medium was used as a negative control (minimum signal control), while ensuring that the final level of DMSO in each reaction well was 0.2%. After removing the medium from the 384-well plate, 25 ul of the configured compound at different concentrations was transferred into the well plate and the compound and cells were incubated in the cell incubator at 37° C. with 5% CO2 for 3 days.
(§2) The 384-well plates were removed from the cell incubator and allowed to equilibrate for 1 h to room temperature. 25 ul of Cell Titer-Glo assay was added to each well, lysed on a shaker for 2 min and then read out (Luminescence) using a BMG PHERAStar after 10 min incubation. Calculate the inhibition rate from the luminescence signal: first calculate the average of the positive control (maximum signal control) and the negative control (minimum signal control).
(§3) [formula] to calculate the rate of inhibition of the cells by different concentrations of the compounds. The IC50 of the compound on cell activity inhibition was calculated by fitting a log(inhibitor) vs. response-Variable slope model to GraphPad Prism 6. The fitted equation was: Y=Bottom+(Top−Bottom)/(1+10^((Log IC50−X)*HillSlope)), where Y represents the rate of inhibition and X represents the concentration of the known compound after Log.
Background: Cellular ATP, detected with luciferase, serves as a proxy for viable cell number.

In another data set the test system is H1299 cells. The experiment in a line: Anti-proliferative effect by Cell Titer-Glo, H1299. Type of data set: cell-based. Conditions: Homo sapiens, NCI-H1299, 72 h, read-out: IC50 measured value H1299. As for the experimental part:
as §1, §2, §3

Data set [1] can be described thus: Compound pharmacokinetics in mice. Type of data set: in vivo. Conditions: male ICR mice, oral gavage 10 mg/kg, plasma. As for the experimental part: To investigate the pharmacokinetic properties of the compound in mice, six male ICR mice were given the compound by oral gavage (10 mg/kg) at the corresponding dose, and each route of administration was divided into two groups: group A mice had anticoagulated whole blood collected at 5 min, 30 min, 2 h and 8 h after administration, while group B mice had anticoagulated whole blood collected at 15 min, 1 h, 4 h and 24 h after administration, isolated plasma;
The plasma concentrations of the compounds were determined by LC-MS using a standard curve calibration method. Plasma concentration-time data were fitted to pharmacokinetic parameters using Winnolin 5.2 software.

The target of the next data set is T1, Wee1 protein (Homo sapiens, UniProt P30291).
T1 construct: purchased Thermo Fisher PR7373A
T1 sequence (P30291 whole entry): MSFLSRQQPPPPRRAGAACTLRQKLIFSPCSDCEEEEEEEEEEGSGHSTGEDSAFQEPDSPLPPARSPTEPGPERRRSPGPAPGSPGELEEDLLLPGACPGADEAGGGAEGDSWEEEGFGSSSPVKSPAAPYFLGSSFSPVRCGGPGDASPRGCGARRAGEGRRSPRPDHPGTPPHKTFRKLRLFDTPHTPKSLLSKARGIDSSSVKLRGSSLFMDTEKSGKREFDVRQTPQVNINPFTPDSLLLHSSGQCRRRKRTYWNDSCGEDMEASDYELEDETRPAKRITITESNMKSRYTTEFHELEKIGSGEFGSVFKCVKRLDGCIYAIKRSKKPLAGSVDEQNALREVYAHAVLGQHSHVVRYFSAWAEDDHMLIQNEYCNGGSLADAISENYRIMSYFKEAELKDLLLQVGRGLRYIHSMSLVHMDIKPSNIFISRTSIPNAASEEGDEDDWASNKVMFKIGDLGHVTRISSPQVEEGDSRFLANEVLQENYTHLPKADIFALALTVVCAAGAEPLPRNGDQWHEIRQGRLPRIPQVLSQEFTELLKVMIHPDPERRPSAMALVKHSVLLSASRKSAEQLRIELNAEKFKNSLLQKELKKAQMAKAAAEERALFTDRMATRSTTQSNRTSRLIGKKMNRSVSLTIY
The experiment in a line: Binding of compound to Wee1 protein and Tracer 178 by TR-FRET. Conditions: inhibitory activity against Wee1 kinase, read-out: IC50 measured value. How it is done: First, solutions of the compounds in different concentration gradients were prepared. […] DMSO was added as a positive control (maximal signal control) and a negative control (minimal signal control) and a final level of 0.25% DMSO was ensured in each reaction well.
WEE1 (Thermo Fisher, Cat #PR7373A) protein in buffer (50 mM Hepes pH 7.5, 10 mM MgCl2, 1 mM EGTA, 0.01% Brij-35) at 15 nM) in different concentrations of compound, and Tracer 178 (Invitrogen, PV5593) and MAb Anti-GST-Eu crypate (Cisbio, 61GSTKLA) were added to 384-well plates (Corning, cat #3574), centrifuged at 1000 rpm for 1 min and the 384-well plates were incubated in a constant temperature shaker for 60 min at 25° C. and 300 rpm. Tracer 178 and MAb Anti-GST-Eu crypate were prepared in buffer (50 mM HEPES pH 7.5, 10 mM MgCl2, 1 mM EGTA, 0.01% Brij-35) with a final reaction concentration of 50 nM for Tracer 178 and a final concentration of 2 nM for MAb Anti-GST-Eu crypate, where the negative control (minimal signal control) used an equal amount of buffer in place of the protein solution.
After incubation, readings were performed using BMG PHERAStar (excitation light at 337 nm and emission light at wavelength values of 620 nm and 665 nm to read the fluorescence signal values). […] The IC50 for inhibition of enzyme activity by the compounds was then calculated using GraphPad Prism 6 and fitted with a log (inhibitor) vs. response-Variable slope mode. The fitting equation was: Y=Bottom+(Top-Bottom)/(1+10^((Log IC50−X)*HillSlope)), where Y represents the percentage of residual enzyme activity known and X represents the known concentration of compound after the logarithm.
(Time-resolved FRET reads energy transfer from a long-lived donor to a nearby acceptor.)

Setting [2] is: 72 h, MIA Paca-2 cells, 3 days, Cell Titer-Glo.
The mark [3] stands for this setting: H1299 cells, 3 days, Cell Titer-Glo.

Turning to `CN1CCN(c2ccc(Nc3ncc4cnn(-c5ccnc(N=S(C)(C)=O)c5)c4n3)cc2)CC1` [Compound 28], the values for the IC50 in the data set with MIA Paca-2 cells (setting [2]), with H1299 cells (setting [3]) and at Wee1 protein were 1 to 5 µM, 5 to 20 µM and 0.1 to 1 µM, respectively. In data set [1], this compound showed a Cl_pred of 230 mL/min/kg. Also, the highest level in data set [1] (mouse) (Cmax) was 337 ng/mL. Further, the AUC(0-inf) in data set [1] (mouse, read-out: AUCinf—Pred) was 743 ng·h/mL. In addition, the half-life in data set [1] (mouse, read-out: T½ (converted)) was 1.78 h.
For `CN1CCN(c2ccc(Nc3ncc4cnn(-c5cccc(-n6ccccc6=O)c5)c4n3)cc2)CC1` [Compound 48], the IC50 in the data set with MIA Paca-2 cells (setting [2]) lay within 1 to 5 µM; with H1299 cells (setting [3]), 1 to 5 µM; at Wee1 protein it was 0.01 to 0.1 µM.
Regarding `CN1CCN(c2ccc(Nc3ncc4cnn(-c5ccc6c(c5)c(N)nn6C)c4n3)cc2)CC1` [Compound 49], the IC50 lay in the range of 1 to 5 µM in the data set on MIA Paca-2 cells (MIA PaCa-2, 72 h); 1 to 5 µM in the data set with H1299 cells; 0.1 to 1 µM at Wee1 protein.
On to `Cc1nc2cccc(-n3ncc4cnc(Nc5ccc(N6CCN(C)CC6)cc5)nc43)c2o1` [Compound 51], for which the IC50 fell in the range of 0.1 to 1 µM with MIA Paca-2 cells (setting [2]), 0.1 to 1 µM with H1299 cells (setting [3]) and 0.01 to 0.1 µM at Wee1 protein.
For the compound `CN1CCN(c2ccc(Nc3ncc4cnn(-c5cc(C(C)(C)O)ccc5F)c4n3)cc2)CC1` [Compound 52], the IC50 in the data set on MIA Paca-2 cells (setting [2]), with H1299 cells (setting [3]) and on Wee1 protein was 0.1 to 1 µM each time.
Regarding `CN1CCN(c2ccc(Nc3ncc4cnn(-c5cccc(-n6ccccc6=O)n5)c4n3)cc2)CC1` [Compound 54], the results for the 50% inhibitory concentration (IC50) in the data set with MIA Paca-2 cells (setting [2]), in the data set with H1299 cells (setting [3]) and on Wee1 protein were 1 to 5 µM, 5 to 20 µM and 0.01 to 0.1 µM, respectively.
For `CN1CCN(c2ccc(Nc3ncc4cnn(-c5ccc6ncc(C(C)(C)O)n6c5)c4n3)cc2)CC1` [Compound 55], in that order: 1 to 5 µM, 1 to 5 µM and 0.01 to 0.1 µM.
With `CN1CCN(c2ccc(Nc3ncc4cnn(-c5cccc(N=S(C)(C)=O)c5)c4n3)nc2)CC1` [Compound 56], the figures for the IC50 in the data set with MIA Paca-2 cells (setting [2]), with H1299 cells (setting [3]) and at Wee1 protein were 5 to 20 µM, 5 to 20 µM and 0.1 to 1 µM, respectively.
As for `CCC1(O)CCc2ccc(-n3ncc4cnc(Nc5ccc(N6CCN(C)CC6)cc5)nc43)nc21` (stereo not shown) [Compound 57], the IC50 in the data set with MIA Paca-2 cells (setting [2]) was 0.1 to 1 µM; in the data set on H1299 cells (setting [3]), 1 to 5 µM; on Wee1 protein, 0.1 to 1 µM.
As to `Cc1nc2ccc(-n3ncc4cnc(Nc5ccc(N6CCN(C)CC6)cc5)nc43)cc2n1C` [Compound 58], the IC50 in the data set with MIA Paca-2 cells (setting [2]) is 0.1 to 1 µM; in the data set with H1299 cells (setting [3]), below 0.1 µM; at Wee1 protein it was 0.01 to 0.1 µM.
For `CCN1C(=O)COc2ccc(-n3ncc4cnc(Nc5ccc(N6CCN(C)CC6)cc5)nc43)cc21` [Compound 59], the IC50 was 0.1 to 1 µM with MIA Paca-2 cells (MIA PaCa-2, 72 h); 0.1 to 1 µM in the data set on H1299 cells; 0.01 to 0.1 µM at Wee1 protein.
As for `CCn1ncc2ccc(-n3ncc4cnc(Nc5ccc(N6CCN(C)CC6)cc5)nc43)nc21` [Compound 60], the concentration for half-maximal inhibition (IC50) with MIA Paca-2 cells (MIA PaCa-2, 72 h) lay in the range of 0.1 to 1 µM; with H1299 cells, 1 to 5 µM; at Wee1 protein it was 0.01 to 0.1 µM.
The corresponding values for `CCN1C(=O)C2(CC2)c2ccc(-n3ncc4cnc(Nc5ccc(N6CCN(C)CC6)cc5)nc43)cc21` [Compound 61] are 1 to 5 µM, 5 to 20 µM and 0.1 to 1 µM.
`CN1CCN(c2ccc(Nc3ncc4cnn(-c5ccc6nncn6c5)c4n3)cc2)CC1` [Compound 62]: the IC50 lay in the range of 1 to 5 µM in the data set on MIA Paca-2 cells (setting [2]), 5 to 20 µM with H1299 cells (setting [3]) and 0.1 to 1 µM on Wee1 protein.

Values taken from patent US12649748B2, “Wee1 inhibitor and use thereof” (JIANGSU TASLY DIYI PHARMACEUTICAL CO., LTD., priority 2021, dated 2026).
